# Results taken from patent publication US9809592B2, “Isopropyl triazolo pyridine compounds” (Eli Lilly and Company, priority 2014, dated 2017).
# How the values were obtained:
# [1] = biological target: T1, PPARγ (Homo sapiens, UniProt P37231); test: PPARγ reporter functional assay in CV1 cells; format: cell-based; conditions: PPARγ and RXRα, 24 hours incubation, luciferase
# T1 construct: expressed in transfected cells; host or cells: CV1 (African green monkey kidney)
# T1 sequence (P37231 1-505): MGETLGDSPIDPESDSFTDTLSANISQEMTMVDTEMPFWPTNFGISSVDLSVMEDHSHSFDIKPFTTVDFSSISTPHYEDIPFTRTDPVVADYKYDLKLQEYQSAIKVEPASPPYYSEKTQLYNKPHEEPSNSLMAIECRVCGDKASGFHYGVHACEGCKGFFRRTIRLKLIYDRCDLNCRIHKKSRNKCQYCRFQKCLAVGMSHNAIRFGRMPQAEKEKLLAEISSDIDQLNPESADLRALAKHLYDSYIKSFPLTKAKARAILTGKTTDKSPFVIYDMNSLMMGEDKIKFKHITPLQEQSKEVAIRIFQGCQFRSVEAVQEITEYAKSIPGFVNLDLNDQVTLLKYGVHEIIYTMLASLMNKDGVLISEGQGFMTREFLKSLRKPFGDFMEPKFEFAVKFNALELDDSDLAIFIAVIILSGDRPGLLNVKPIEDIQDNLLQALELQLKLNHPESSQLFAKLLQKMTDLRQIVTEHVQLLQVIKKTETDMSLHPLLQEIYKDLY
# T1 sequence (P19793 1-462 partner): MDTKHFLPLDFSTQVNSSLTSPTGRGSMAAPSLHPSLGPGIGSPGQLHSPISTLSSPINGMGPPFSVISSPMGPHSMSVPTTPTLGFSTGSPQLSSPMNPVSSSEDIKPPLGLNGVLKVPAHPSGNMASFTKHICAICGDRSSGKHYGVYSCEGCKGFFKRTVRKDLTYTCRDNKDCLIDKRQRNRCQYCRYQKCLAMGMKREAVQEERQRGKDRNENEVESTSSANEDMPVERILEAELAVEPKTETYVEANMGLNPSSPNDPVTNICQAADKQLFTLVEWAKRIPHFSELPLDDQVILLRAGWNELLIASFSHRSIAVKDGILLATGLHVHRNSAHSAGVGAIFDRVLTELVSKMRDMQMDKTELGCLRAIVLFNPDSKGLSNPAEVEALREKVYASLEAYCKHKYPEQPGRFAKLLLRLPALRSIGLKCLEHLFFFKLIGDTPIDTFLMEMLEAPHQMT
# Description: (§1) Because GPR40 is known to be activated by ligands to PPARγ, exemplified compounds are examined in Ga14 PPARα, Ga14 PPARδ, and PPARγ reporter assays to determine the selectivity of exemplified compounds. CV1 cells, which are derived from the renal tissue of an African green monkey, are transfected with various receptor and reporter plasmids using Fugene. For the Ga14 PPARα and PPARδ assays, a reporter plasmid containing five tandem copies of the yeast transcription protein Ga14 response element, cloned upstream of a firefly luciferase gene driven by the major late promoter of adenovirus, is transfected together with a Simian Virus 40 (SV40) driven plasmid constitutively expressing a hybrid protein containing the Ga14 DNA binding domain (DBD), and either the PPARα or PPARδ ligand binding domain. […] After 24 hours incubation with compounds, cells are lysed and luciferase activity is determined as a measure of receptor activation by luminescence. […] The maximum percent stimulation is determined versus maximum stimulation obtained with 10 μM of an appropriated PPAR agonist reference compound, 2-methyl-2-(4-{2-methyl-3-[2-(phenylcarbonyl)-4-(trifluoromethoxy)phenoxy]propoxy}phenoxy)propanoic acid. […]
# [2] = biological target: T2, PPARδ (Homo sapiens, UniProt Q03181); test: Ga14 PPARδ reporter functional assay in CV1 cells; format: cell-based; conditions: 24 hours incubation, luciferase
# T2 construct: expressed in transfected cells; host or cells: CV1 (African green monkey kidney)
# T2 sequence (Q03181 211-439 limits assumed): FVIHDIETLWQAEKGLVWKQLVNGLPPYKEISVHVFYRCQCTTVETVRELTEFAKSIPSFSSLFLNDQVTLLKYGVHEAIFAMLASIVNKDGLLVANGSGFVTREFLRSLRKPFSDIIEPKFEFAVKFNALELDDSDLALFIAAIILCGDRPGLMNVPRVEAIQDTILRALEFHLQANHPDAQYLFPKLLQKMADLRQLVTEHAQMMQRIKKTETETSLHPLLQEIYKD
# Description: as §1
# [3] = biological target: T3, Human GPR40 membranes (Homo sapiens, UniProt O14842); test: Competition binding kinetics, receptor residence time; conditions: 6-8 nM [3H] TAK875; mean, SEM, n=4; read-out: GPR40 Residence time, τ
# T3 construct: expressed in transfected cells; host or cells: HEK293 (membranes)
# Experimental: The association and dissociation rates of unlabeled compounds are quantified using the method described by Motulsky, H. J. and L. C. Mahan (1984), “The kinetics of competitive radioligand binding predicted by the law of mass action” Mol Pharm 25(1): 1-9. Human GPR40 membranes are incubated at various time points with 6-8 nM [^3H] TAK875 in the absence or presence of 1× Ki, 3× Ki, or 10× Ki unlabeled compound. Separation of bound and free radioligand is performed using rapid-wash filtration onto glass fiber filters and counted in a liquid scintillation counter. Rates are calculated by fitting the data to the kinetics of competitive binding model in GraphPad Prism 6, version 6.03 for Windows, GraphPad Software, La Jolla Calif. USA, www.graphpad.com.
# [4] = biological target: mGPR40 (Mus musculus, UniProt Q76JU9); test: Mouse beta-arrestin agonist assay with 1% FBS (U205 cells expressing mFFAR1); format: cell-based; conditions: n=3
# Description: (§2) Human embryonic kidney (hEK293)-hFFAR1 cells are purchased from DiscoveRx. Human osteosarcoma (U205) cells expressing mFFAR1 are developed by DiscoveRX. These cells co-express the Prolink (PK)-tagged GPR40 and the Enzyme Acceptor (EA)-tagged beta-arrestin fusion proteins. If activation of the GPR40 stimulates beta-arrestin recruitment, it would force complementation of the beta galactosidase (B-gal) enzyme fragments, forming a B-gal enzyme that generates a chemiluminescent signal using the DiscoveRx PathHunter detection kit. Cells are incubated overnight at 5,000 cells/well in 384 well plates in culture media containing 1% FBS (fetal bovine serum). Serial diluted compounds in DMSO (2× dilutions to generate 20 concentrations) are step down diluted in culture media containing 1% FBS (fetal bovine serum) and added to cells with a final top concentration starting of 100 μM. After addition of compounds, cells are incubated for 90 min at 37° C. in 5% CO2 incubator, and DiscoveRX kit detection reagents are added. Measurement of the chemiluminescent signal is ascertained with the Envision reader, after a 1-hour incubation at room temperature. Data are fit to a 4 parameter-fit logistics to determine EC50 values, % activity is measured versus maximum response to an internal standard GPR40 agonist standard, TAK875, at 1 μM.
# [5] = test system: PPAR; test: PPAR α, δ, and γ functional assays (overall statement); format: cell-based; conditions: PPARα, PPARδ and PPARγ reporter assays; efficacy of <20% is considered negative
# Description: as §1
# [6] = biological target: T4, hGPR40 (Homo sapiens, UniProt O14842); test: Human beta-arrestin agonist assay with 1% FBS (hEK293-hFFAR1 cells); format: cell-based; design: host or cells: HEK293 (hEK293-hFFAR1); conditions: n=2
# Description: as §2
# Target sequence in this assay (O14842 whole entry): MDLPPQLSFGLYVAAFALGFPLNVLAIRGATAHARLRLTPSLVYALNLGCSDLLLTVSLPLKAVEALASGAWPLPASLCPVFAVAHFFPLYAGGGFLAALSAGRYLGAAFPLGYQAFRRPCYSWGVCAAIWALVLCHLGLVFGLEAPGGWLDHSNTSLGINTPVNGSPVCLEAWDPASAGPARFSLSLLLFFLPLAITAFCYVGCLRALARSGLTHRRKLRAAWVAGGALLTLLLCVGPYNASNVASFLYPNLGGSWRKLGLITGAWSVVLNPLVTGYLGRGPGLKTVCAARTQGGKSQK
# Target sequence in this assay (P32121 whole entry partner): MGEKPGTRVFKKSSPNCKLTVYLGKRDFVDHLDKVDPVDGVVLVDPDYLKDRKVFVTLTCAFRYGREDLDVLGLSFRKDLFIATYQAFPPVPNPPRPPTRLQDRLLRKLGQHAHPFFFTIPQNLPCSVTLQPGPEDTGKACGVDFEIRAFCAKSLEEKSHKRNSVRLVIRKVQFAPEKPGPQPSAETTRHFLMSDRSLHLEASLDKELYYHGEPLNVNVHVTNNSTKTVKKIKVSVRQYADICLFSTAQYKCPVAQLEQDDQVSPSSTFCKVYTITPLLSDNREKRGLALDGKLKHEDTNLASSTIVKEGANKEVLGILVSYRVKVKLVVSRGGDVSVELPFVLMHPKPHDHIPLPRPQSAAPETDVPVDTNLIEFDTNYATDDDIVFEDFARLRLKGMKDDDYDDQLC
# [7] = biological target: T4, hGPR40; test: Calcium Flux Primary Assay (FLIPR); format: cell-based; design: expressed in transfected cells; host or cells: HEK293; conditions: mean, SEM
# Experimental: HEK293 cells over expressing the human GPR40 cDNA maintained in Dulbecco's modified Eagle's medium with F12 medium in 3:1 ratio supplemented with 10% FBS and 800 μg/ml geneticin at 37° C. and 5% CO2 are employed for the study. Agonist assays are performed using a Calcium 4 Dye assay kit (Molecular Devices) in the presence or absence of 0.1% fatty acid free BSA in the assay buffer (1×HBSS (Hank's Balanced Salt Solution) & 20 mM HEPES (4-(2-hydroxyethyl)-1-piperazineethanesulfonic acid). Receptor activation is measured as an increase in intracellular calcium using the Fluorometric Imaging Plate Reader (FLIPR). Maximum change in fluorescence over the base line is used to determine the agonist response. The EC50 value of the compound is calculated using Excel Fit software (version 4; IDBS) by plotting concentration vs relative fluorescence units (RFUs). […] (Mean±SEM; SEM=standard error of the mean.)
# Target sequence in this assay (O14842 whole entry): as the sequence (O14842 whole entry) above
# [8] = biological target: T5, PPARα (Homo sapiens, UniProt Q07869); test: Ga14 PPARα reporter functional assay in CV1 cells; format: cell-based; conditions: 24 hours incubation, luciferase
# T5 construct: expressed in transfected cells; host or cells: CV1 (African green monkey kidney)
# T5 sequence (Q07869 239-466 limits assumed): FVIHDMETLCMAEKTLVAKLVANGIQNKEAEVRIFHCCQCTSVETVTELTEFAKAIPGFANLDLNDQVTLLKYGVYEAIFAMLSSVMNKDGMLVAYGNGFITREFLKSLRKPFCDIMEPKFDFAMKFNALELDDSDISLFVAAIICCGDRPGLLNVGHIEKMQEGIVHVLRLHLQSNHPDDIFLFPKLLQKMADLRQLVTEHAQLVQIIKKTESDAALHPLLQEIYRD
# Description: as §1
# [9] = biological target: T6, human GPR40 (hGPR40) (Homo sapiens, UniProt O14842); test: Radioligand competition binding assay with [3H]-TAK-875, HEK293 membranes; conditions: 5 nM [3H]-TAK-875; Cheng-Prusoff; mean, SEM
# T6 construct: expressed in transfected cells; host or cells: HEK293 (membranes)
# Description: Competition curves are plotted as the percent specific inhibition versus concentration of compound and analyzed using a four parameter nonlinear regression fit with variable slope. […] See Cheng, Y. and Prusoff, W. H. (1973) “Relationship between the inhibition constant (Ki) and the concentration of inhibitor which causes 50 percent inhibition (IC50) of an enzymatic reaction”, Biochem Pharmacol 22(23):3099-108.
# [10] = versus maximum response to TAK875 at 1 μM
# Sequence of mGPR40 (Q76JU9 whole entry, the tested form may be a part): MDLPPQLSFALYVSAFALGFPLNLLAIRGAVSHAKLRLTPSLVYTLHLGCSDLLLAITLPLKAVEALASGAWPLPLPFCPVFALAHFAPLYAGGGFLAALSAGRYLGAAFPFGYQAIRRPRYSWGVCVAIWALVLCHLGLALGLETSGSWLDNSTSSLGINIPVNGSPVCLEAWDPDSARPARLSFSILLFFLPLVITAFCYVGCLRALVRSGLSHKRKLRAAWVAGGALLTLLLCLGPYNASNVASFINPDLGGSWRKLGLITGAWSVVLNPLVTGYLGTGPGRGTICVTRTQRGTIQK
# Sequence of mGPR40 (P32121 whole entry partner, the tested form may be a part): as the sequence (P32121 whole entry partner) above
# T6 sequence (O14842 whole entry): as the sequence (O14842 whole entry) above
# T3 sequence (O14842 whole entry): as above
structure (smiles),measurement,setting,value
"CC#C[C@@H](CC(=O)O)c1ccc(OCc2cc(-c3c(C)cc(OC)cc3C)c3nc(C(C)C)nn3c2)cc1 [Example 1, (S)-3-{4-[2-Isopropyl-8-(4-methoxy-2,6-dimethyl-phenyl)-[1,2,4]triazolo[1,5-a]pyridin-6-ylmethoxy]-phenyl}-hex-4-ynoic acid]",EC50,[1],2260 nM
same,EC50,[2],4000 nM
same,residence time,[3],169 min
same,EC50,"[4]; 1% FBS, 90 min, mean, SEM, read-out: mGPR40 b-arrestin EC50",4.87 nM
same,"% stimulation max (FA), mGPR40 b-arrestin",[4]; [10],149%
same,PPAR activity / efficacy (in words),[5],weak PPAR activity
same,EC50,"[6]; 1% FBS, 90 min, mean, SEM, read-out: hGPR40 b-arrestin EC50",30.6 nM
same,"% stimulation max (FA), hGPR40 b-arrestin",[6]; [10],170%
same,EC50,[7]; HEK293 cells over expressing human GPR40,247 nM
same,efficacy,[7]; maximal response compared to natural ligand linoleic acid,78.7%
same,EC50,[8],> 10000 nM
same,Ki,[9],15.8 nM
